Data as given in patent US20200024278A1, “COMPOSITION COMPRISING ANTIBIOTIC COMPOUND AND AN HETEROCYCLIC COMPOUND AND THEIR USE IN PREVENTING OR TREATING BACTERIAL INFECTIONS” (MUTABILIS, priority 2016, published 2020).
Where two headings read alike, the source gives them in different places. Blank lines part the entries; values can stand above or below the compound they belong to.

Key:
Experiment in all cases: MIC, broth microdilution (CLSI), substance alone or ATB combined with compound at 4 or 8 μg/mL
SPN 49619 = assay type: cell-based, S. pneumoniae; conditions: SPN 49619; for MIC: Streptococcus pneumoniae
Description: (§1) Compounds of the present invention were assessed against genotyped bacterial strains alone or in combination with an antibacterial. In the assays, MICs of said compounds or combination of antibiotics with fixed concentrations of said compounds (4 or 8 μg/mL) were determined by the broth microdilution method according to the Clinical Laboratory Standards Institute (CLSI-M7-A7). Briefly, compounds alone according to the invention were prepared in DMSO and spotted (2 μL each) on sterile polystyrene plates (Corning, 3788). Combinations of compounds and antibiotics dilutions were prepared in DMSO and spotted (1 μL each) on sterile polystyrene plates (Corning, 3788). Log phase bacterial suspensions were adjusted to a final density of 5·10^5 CFU/mL in cation-adjusted Mueller-Hinton broth (ca-MHB; Becton-Dickinson and Company) and added to each well (98 μL). Assays including Fosfomycin were supplemented with 25 μg/ml of Glucose-6-phosphate. Microplates were incubated for 16-20 h at 35° C. in ambient air. The MIC of the compounds was defined as the lowest concentration of said compounds that prevented bacterial growth as read by visual inspection. The MIC of ATB at each compound concentration was defined as the lowest concentration of ATB that prevented bacterial growth as read by visual inspection.

SAU 29213 = assay type: cell-based, S. aureus; conditions: SAU 29213
Description: as §1

ECO 190317 = assay type: cell-based, E. coli; conditions: ECO 190317
Description: as §1

PAE 105250 = assay type: cell-based, P. aeruginosa; conditions: PAE 105250; for MIC: Pseudomonas aeruginosa
Description: as §1

ECO UFR39 = assay type: cell-based, E. coli; conditions: ECO UFR39
Description: as §1

PAE UFR90 = assay type: cell-based, P. aeruginosa; conditions: PAE UFR90
Description: as §1

PAE UFR48 = assay type: cell-based, P. aeruginosa; conditions: PAE UFR48
Description: as §1

ECL P99 = assay type: cell-based, E. cloacae; conditions: ECL P99
Description: as §1

[1] = antibiotic alone, read-out: MIC ATB alone

Compound: C[C@H]1[C@H](NC(=O)/C(=N\OC(C)(C)C(=O)O)c2csc(N)n2)C(=O)N1S(=O)(=O)O [ATM, Aztreonam, reference compound]
MIC (ECO 190317; Escherichia coli, antibiotic alone, read-out: MIC ATB alone): 128 µg/mL
MIC (PAE 105250; [1]): 8 µg/mL
MIC (PAE 105250; substance alone, read-out: MIC): 8 µg/mL
MIC (SPN 49619; [1]): > 64 µg/mL
MIC (SPN 49619; substance alone, read-out: MIC): > 64 µg/mL

Compound: O=C(N[C@H](CO)[C@H](O)c1ccc([N+](=O)[O-])cc1)C(Cl)Cl [CM]
MIC ATB alone (ECO 190317; antibiotic alone): 8 µg/mL
MIC ATB combined with Example 1 @8 μg/ml (ECO 190317; with Example 1 @8 μg/ml): <0.031 µg/mL
MIC ATB combined with Example 1 @8 μg/ml (ECO 190317; with Example 1 at 8 μg/ml): <0.031 µg/mL
MIC ATB combined with Example 7 @8 μgml (ECO 190317; with Example 7 at 8 μg/ml): <0.031 µg/mL
MIC ATB combined with Example 13 @8 μg/ml (ECO 190317; with Example 13 at 8 μg/ml): <0.031 µg/mL
MIC ATB alone (ECO UFR39; antibiotic alone): 64 µg/mL
MIC ATB combined with Example 1 @8 μg/ml (ECO UFR39; with Example 1 @8 μg/ml): <0.031 µg/mL
MIC ATB combined with Example 1 @8 μg/ml (ECO UFR39; with Example 1 at 8 μg/ml): <0.031 µg/mL
MIC ATB combined with Example 7 @8 μgml (ECO UFR39; with Example 7 at 8 μg/ml): <0.031 µg/mL
MIC ATB combined with Example 13 @8 μg/ml (ECO UFR39; with Example 13 at 8 μg/ml): <=0.031 μg/mL
MIC ATB alone (PAE UFR90; antibiotic alone): >1024 µg/mL
MIC ATB combined with Example 1 @8 μg/ml (PAE UFR90; with Example 1 @8 μg/ml): <0.031 µg/mL
MIC ATB combined with Example 1 @8 μg/ml (PAE UFR90; with Example 1 at 8 μg/ml): <0.031 µg/mL
MIC ATB combined with Example 12 @8 μg/ml (PAE UFR90; with Example 12 at 8 μg/ml): >32 µg/mL
MIC ATB combined with Example 14 @8 μg/ml (PAE UFR90; with Example 14 at 8 μg/ml): >32 µg/mL
MIC ATB combined with Example 16 @4 μg/ml (PAE UFR90; with Example 16 at 4 μg/ml): >32 µg/mL
MIC ATB alone (PAE UFR48; antibiotic alone): 512 µg/mL
MIC ATB combined with Example 1 @8 μg/ml (PAE UFR48; with Example 1 @8 μg/ml): <0.031 µg/mL
MIC ATB combined with Example 1 @8 μg/ml (PAE UFR48; with Example 1 at 8 μg/ml): <0.031 µg/mL
MIC ATB combined with Example 12 @8 μg/ml (PAE UFR48; with Example 12 at 8 μg/ml): >32 µg/mL
MIC ATB combined with Example 14 @8 μg/ml (PAE UFR48; with Example 14 at 8 μg/ml): >32 µg/mL
MIC ATB combined with Example 16 @4 μg/ml (PAE UFR48; with Example 16 at 4 μg/ml): >32 µg/mL
MIC ATB combined with Example 12 @8 μg/ml (PAE 105250; with Example 12 at 8 μg/ml): >32 µg/mL
MIC ATB combined with Example 14 @8 μg/ml (PAE 105250; with Example 14 at 8 μg/ml): >32 µg/mL
MIC ATB combined with Example 16 @4 μg/ml (PAE 105250; with Example 16 at 4 μg/ml): >32 µg/mL
MIC ATB alone (SPN 49619; antibiotic alone): 4 µg/mL
MIC ATB combined with Example 1 @8 μg/ml (SPN 49619; with Example 1 @8 μg/ml): 4 µg/mL
MIC ATB combined with Example 1 @8 μg/ml (SPN 49619; with Example 1 at 8 μg/ml): 4 µg/mL
MIC ATB combined with Example 7 @8 μgml (SPN 49619; with Example 7 at 8 μg/ml): 2 µg/mL
MIC ATB combined with Example 11 @8 μg/ml (SPN 49619; with Example 11 at 8 μg/ml): 2 µg/mL
MIC ATB combined with Example 13 @8 μg/ml (SPN 49619; with Example 13 at 8 μg/ml): 2 µg/mL
MIC ATB combined with Example 15 @4 μgml (SPN 49619; with Example 15 at 4 μg/ml): 2 µg/mL
MIC ATB combined with Example 16 @4 μg/ml (SPN 49619; with Example 16 at 4 μg/ml): <=0.031 μg/mL
MIC ATB alone (ECL P99; antibiotic alone): 512 µg/mL
MIC ATB combined with Example 1 @8 μg/ml (ECL P99; with Example 1 @8 μg/ml): <0.031 µg/mL
MIC ATB combined with Example 1 @8 μg/ml (ECL P99; with Example 1 at 8 μg/ml): <0.031 µg/mL
MIC ATB alone (SAU 29213; antibiotic alone): 16 µg/mL
MIC ATB combined with Example 1 @8 μg/ml (SAU 29213; with Example 1 @8 μg/ml): 16 µg/mL
MIC ATB combined with Example 1 @8 μg/ml (SAU 29213; with Example 1 at 8 μg/ml): 16 µg/mL
MIC ATB combined with Example 7 @8 μgml (SAU 29213; with Example 7 at 8 μg/ml): 4 µg/mL
MIC ATB combined with Example 11 @8 μg/ml (SAU 29213; with Example 11 at 8 μg/ml): <=0.031 μg/mL
MIC ATB combined with Example 13 @8 μg/ml (SAU 29213; with Example 13 at 8 μg/ml): 4 µg/mL
MIC ATB combined with Example 15 @4 μgml (SAU 29213; with Example 15 at 4 μg/ml): 0.063 µg/mL

Compound: CCC[C@@H]1C[C@@H](C(=O)N[C@@H]([C@H]2O[C@H](SC)[C@H](O)[C@@H](O)[C@H]2O)[C@H](C)Cl)N(C)C1 [CLI]
MIC ATB alone (SPN 49619; CLI alone): 0.125 µg/mL
MIC ATB alone (SPN 49619; antibiotic alone): 0.125 µg/mL
MIC ATB combined with Example 1 @8 μg/ml (SPN 49619; with Example 1 @8 μg/ml): 0.063 µg/mL
MIC ATB combined with Example 9 @4 μg/ml (SPN 49619): 0.0039 µg/mL

Compound: CC(=O)NC[C@H]1CN(c2ccc(N3CCOCC3)c(F)c2)C(=O)O1 [LZD]
MIC ATB alone (SPN 49619; LZD alone): 1 µg/mL
MIC ATB alone (SPN 49619; antibiotic alone): 1 µg/mL
MIC ATB combined with Example 1 @8 μg/ml (SPN 49619; with Example 1 @8 μg/ml): 1 µg/mL
MIC ATB combined with Example 9 @4 μg/ml (SPN 49619): <=0.0078 μg/mL
MIC ATB alone (SAU 29213; LZD alone): 4 µg/mL
MIC ATB alone (SAU 29213; antibiotic alone): 4 µg/mL
MIC ATB combined with Example 1 @8 μg/ml (SAU 29213; with Example 1 @8 μg/ml): 2 µg/mL
MIC ATB combined with Example 9 @4 μg/ml (SAU 29213): <0.0078 µg/mL

Further lines, results first:

MIC ATB alone (SPN 49619; antibiotic alone): 0.25 µg/mL
MIC ATB combined with Example 1 @8 μg/ml (SPN 49619; with Example 1 @8 μg/ml): 0.25 µg/mL
MIC ATB combined with Example 9 @4 μg/ml (SPN 49619): <0.0039 µg/mL
MIC ATB alone (SPN 49619; VAN alone): 0.25 µg/mL
MIC ATB alone (SAU 29213; antibiotic alone): 1 µg/mL
MIC ATB combined with Example 1 @8 μg/ml (SAU 29213; with Example 1 @8 μg/ml): 1 µg/mL
MIC ATB combined with Example 9 @4 μg/ml (SAU 29213): <0.0039 µg/mL
MIC ATB alone (SAU 29213; VAN alone): 1 µg/mL
Compound: CN[C@H](CC(C)C)C(=O)N[C@H]1C(=O)N[C@@H](CC(N)=O)C(=O)N[C@H]2C(=O)N[C@H]3C(=O)N[C@H](C(=O)N[C@H](C(=O)O)c4cc(O)cc(O)c4-c4cc3ccc4O)[C@H](O)c3ccc(c(Cl)c3)Oc3cc2cc(c3O[C@@H]2O[C@H](CO)[C@@H](O)[C@H](O)[C@H]2O[C@H]2C[C@](C)(N)[C@H](O)[C@H](C)O2)Oc2ccc(cc2Cl)[C@H]1O [VAN]

MIC ATB alone (SPN 49619; RIF alone): 0.031 µg/mL
MIC ATB alone (SPN 49619; antibiotic alone): 0.031 µg/mL
MIC ATB combined with Example 1 @8 μg/ml (SPN 49619; with Example 1 @8 μg/ml): 0.063 µg/mL
MIC ATB combined with Example 9 @4 μg/ml (SPN 49619): 0.00024 µg/mL
MIC ATB alone (SAU 29213; RIF alone): 0.0078 µg/mL
MIC ATB alone (SAU 29213; antibiotic alone): 0.0078 µg/mL
MIC ATB combined with Example 1 @8 μg/ml (SAU 29213; with Example 1 @8 μg/ml): 0.0078 µg/mL
MIC ATB combined with Example 9 @4 μg/ml (SAU 29213): 0.002 µg/mL
Compound: CO[C@H]1/C=C/O[C@@]2(C)Oc3c(C)c(O)c4c(O)c(c(/C=N/N5CCN(C)CC5)c(O)c4c3C2=O)NC(=O)/C(C)=C\C=C\[C@H](C)[C@H](O)[C@@H](C)[C@@H](O)[C@@H](C)[C@H](OC(C)=O)[C@@H]1C [RIF]

MIC ATB alone (SPN 49619; ERY alone): 0.063 µg/mL
MIC ATB alone (SPN 49619; antibiotic alone): 0.063 µg/mL
MIC ATB combined with Example 1 @8 μg/ml (SPN 49619; with Example 1 @8 μg/ml): 0.063 µg/mL
MIC ATB combined with Example 9 @4 μg/ml (SPN 49619): <0.0020 µg/mL
MIC ATB alone (SAU 29213; ERY alone): 1 µg/mL
MIC ATB alone (SAU 29213; antibiotic alone): 1 µg/mL
MIC ATB combined with Example 1 @8 μg/ml (SAU 29213; with Example 1 @8 μg/ml): 0.25 µg/mL
MIC ATB combined with Example 9 @4 μg/ml (SAU 29213): <=0.0020 μg/mL
Compound: CC[C@H]1OC(=O)[C@H](C)[C@@H](O[C@H]2C[C@@](C)(OC)[C@@H](O)[C@H](C)O2)[C@H](C)[C@@H](O[C@@H]2O[C@H](C)C[C@H](N(C)C)[C@H]2O)[C@](C)(O)C[C@@H](C)C(=O)[C@H](C)[C@@H](O)[C@]1(C)O [ERY]
